The nature of test [1]: Analgesic activity (technique of Siegmund E. et al.). In kind it is in vivo. As to conditions: po, read-out: DE50 mg/kg p.o. An excerpt:
II a notamment été mis en évidence, par l'étude de plusieurs produits que les nouveaux dérivés de thiopyranopyrrole manifestent une activité analgésique dans la technique de Siegmund E. et coll., Proc. Soc. Exp. Biol. Med., 95, 729 (1957).

The test system of test [2] is septide (agoniste de la substance P). The test can be described thus: Inhibition of septide-induced increase in capillary permeability (technique of A. Saria et al. adapted to the mouse). In kind it is in vivo, souris. As to conditions: sc, capillary permeability increase caused by septide, read-out: DE50 mg/kg s.c. An excerpt: L'étude de plusieurs dérivés de thiopyranopyrrole de formule générale (I) dans la technique de A. Saria et coll., Arch. Pharmacol.,324, 212-218 (1983) adaptée à la souris a permis de mettre en évidence un effet inhibiteur de l'augmentation de la perméabilité capillaire entraîné par le septide (agoniste de la substance P, ce qui témoigne d'une activité anti-inflammatoire : […]

The test system of a further test is substance P. Kind of test: Antagonism of substance P-induced hypotension (technique of C.A. Maggi et al.). In kind it is in vivo. As to conditions: rat; 1 mg/kg i.v./mn for 5 mn; hypotension induced by i.v. injection of 250 mg/kg of substance P. The method, then: L'injection de substance P chez l'animal provoque une hypotension. Les produits étudiés dans la technique de C.A. Maggi et coll., J. Auton. Pharmac., 7, 11-32 (1987) manifestent un effet antagoniste chez le rat vis-à-vis de cette hypotension. Notamment les produits administrés à la dose de 1 mg/kg i.v./mn, pendant 5 mn, provoquent un antagonisme de l'hypotension induite par une injection i.v. de […] de substance P.

Regarding `CN(C)CCCOc1ccccc1CC(=O)N1C[C@@H]2[C@H](C1)[S@+]([O-])CCC2(c1ccccc1)c1ccccc1` (racemic) [Exemple 7, {[(diméthylamino-3 propoxy-2)phényl]acétyl}-6 diphényl-4,4 oxyde-1 perhydrothiopyrano [2,3-c]pyrrole-(1RS,4aRS,7aRS)], the ED50 in test [1] was found to be 3 mg/kg.

As to `CN(C)CCCOc1ccccc1CC(=O)N1C[C@@H]2[C@H](C1)[S@+]([O-])CCC2(c1ccccc1)c1ccccc1` (single isomer, unassigned) [Exemple 8, (-)-{[(diméthylamino-3 propoxy-2)phényl]-2 acétyl}-6 diphényl-4,4 oxyde-1 perhydrothiopyrano [2,3-c]pyrrole-(1R*,4aR*,7aR*)], the ED50 in test [2] stood at 0.05 mg/kg. In the test on substance P, the “% d'inhibition de l'hypotension” value was 100%.

For `COc1ccccc1[C@H](C)C(=O)N1C[C@@H]2[C@H](C1)[S@+]([O-])CCC2(c1ccccc1)c1ccccc1` (single isomer, unassigned) [Exemple 10, [(-)-(méthoxy-2 phényl)-2 propionyl-(S) ] -6 diphényl-4,4 oxyde-1 erhydrothiopyrano[2,3-c]pyrrole-(1R*, 4aR*, 7aR*)], the ED50 in test [1] was 1.7 mg/kg; in test [2], less than 0.1 mg/kg. Further, the “% d'inhibition de l'hypotension” value in the test with substance P is 100%.

These data come from patent EP0514275A1, “Thiopyranopyrrole derivatives, their preparation and pharmaceutical compositions containing them” (RHONE-POULENC RORER S.A., priority 1991, dated 1992).
